Legend:
Assay in all cases: KINOMEscan competition binding
Conditions in all cases: compound 10.0 µM
[1] = target: NEK4 (human) (UniProt P51957)
[2] = target: MAK (human) (UniProt P20794)
[3] = target: SGK3 (human) (UniProt Q96BR1)
[4] = target: CDKL1 (human) (UniProt Q00532)
[5] = system: KIT (human), P10721 [A829P]
[6] = target: EIF2AK1 (human) (UniProt Q9BQI3)
[7] = system: PIK3CA (human), P42336 [I800L]
[8] = target: GRK1 (human) (UniProt Q15835)
[9] = target: ACVR2B (human) (UniProt Q13705)
[10] = target: STK32A (human) (UniProt Q8WU08)
Sequence of STK32A (human) (Q8WU08 whole entry, looked up): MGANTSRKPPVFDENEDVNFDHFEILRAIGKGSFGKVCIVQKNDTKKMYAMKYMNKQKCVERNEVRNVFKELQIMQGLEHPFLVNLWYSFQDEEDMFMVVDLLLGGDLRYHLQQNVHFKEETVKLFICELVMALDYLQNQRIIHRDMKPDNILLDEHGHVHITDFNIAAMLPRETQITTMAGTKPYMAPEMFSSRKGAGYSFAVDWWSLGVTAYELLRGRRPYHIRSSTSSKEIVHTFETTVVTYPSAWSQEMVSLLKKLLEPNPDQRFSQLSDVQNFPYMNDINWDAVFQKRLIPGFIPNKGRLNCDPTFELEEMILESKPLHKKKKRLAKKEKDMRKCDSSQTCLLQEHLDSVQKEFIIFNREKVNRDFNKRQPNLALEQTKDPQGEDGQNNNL

[11] = target: MAP3K6 (human) (UniProt O95382)
Sequence of MAP3K6 (human) (O95382 whole entry, looked up): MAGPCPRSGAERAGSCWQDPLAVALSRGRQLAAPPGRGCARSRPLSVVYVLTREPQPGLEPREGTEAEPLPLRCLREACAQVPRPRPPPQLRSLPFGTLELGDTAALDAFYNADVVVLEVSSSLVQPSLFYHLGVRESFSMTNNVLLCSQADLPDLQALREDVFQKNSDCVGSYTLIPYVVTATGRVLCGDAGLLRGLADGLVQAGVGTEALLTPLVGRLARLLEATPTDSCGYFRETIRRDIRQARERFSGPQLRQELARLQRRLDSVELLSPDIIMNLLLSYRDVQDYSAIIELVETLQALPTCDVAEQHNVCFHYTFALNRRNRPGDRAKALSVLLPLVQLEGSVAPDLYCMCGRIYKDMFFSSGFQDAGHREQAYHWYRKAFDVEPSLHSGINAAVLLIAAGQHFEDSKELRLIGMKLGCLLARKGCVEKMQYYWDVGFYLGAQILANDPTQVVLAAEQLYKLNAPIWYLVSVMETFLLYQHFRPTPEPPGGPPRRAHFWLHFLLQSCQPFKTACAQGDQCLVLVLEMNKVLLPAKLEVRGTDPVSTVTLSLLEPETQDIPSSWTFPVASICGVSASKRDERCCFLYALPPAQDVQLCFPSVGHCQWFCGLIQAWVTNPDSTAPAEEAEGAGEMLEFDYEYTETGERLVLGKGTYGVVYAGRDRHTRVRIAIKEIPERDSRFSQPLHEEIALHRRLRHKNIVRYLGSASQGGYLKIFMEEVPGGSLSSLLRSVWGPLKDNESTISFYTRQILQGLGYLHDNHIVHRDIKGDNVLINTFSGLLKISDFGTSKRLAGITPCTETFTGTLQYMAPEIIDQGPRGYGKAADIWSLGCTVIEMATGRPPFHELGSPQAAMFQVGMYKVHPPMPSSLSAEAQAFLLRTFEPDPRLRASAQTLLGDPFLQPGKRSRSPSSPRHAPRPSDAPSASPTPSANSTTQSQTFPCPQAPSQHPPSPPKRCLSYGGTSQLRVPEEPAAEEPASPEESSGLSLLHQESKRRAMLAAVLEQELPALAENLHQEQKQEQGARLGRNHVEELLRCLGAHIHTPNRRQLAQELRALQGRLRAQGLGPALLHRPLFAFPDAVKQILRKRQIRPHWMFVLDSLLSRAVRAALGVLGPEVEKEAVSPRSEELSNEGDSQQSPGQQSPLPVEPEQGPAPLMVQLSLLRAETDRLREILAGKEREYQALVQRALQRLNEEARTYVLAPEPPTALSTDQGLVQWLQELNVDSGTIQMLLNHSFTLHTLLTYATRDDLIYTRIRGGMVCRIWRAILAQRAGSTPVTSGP

[12] = target: BRAF (human) (UniProt P15056)
[13] = system: ABL1 (human), P00519 [Q252H]
[14] = system: BRAF (human), P15056 [V600E]
[15] = system: ABL1 (human), P00519 [H396P]

Sequence of EIF2AK1 (human) (Q9BQI3 whole entry, looked up): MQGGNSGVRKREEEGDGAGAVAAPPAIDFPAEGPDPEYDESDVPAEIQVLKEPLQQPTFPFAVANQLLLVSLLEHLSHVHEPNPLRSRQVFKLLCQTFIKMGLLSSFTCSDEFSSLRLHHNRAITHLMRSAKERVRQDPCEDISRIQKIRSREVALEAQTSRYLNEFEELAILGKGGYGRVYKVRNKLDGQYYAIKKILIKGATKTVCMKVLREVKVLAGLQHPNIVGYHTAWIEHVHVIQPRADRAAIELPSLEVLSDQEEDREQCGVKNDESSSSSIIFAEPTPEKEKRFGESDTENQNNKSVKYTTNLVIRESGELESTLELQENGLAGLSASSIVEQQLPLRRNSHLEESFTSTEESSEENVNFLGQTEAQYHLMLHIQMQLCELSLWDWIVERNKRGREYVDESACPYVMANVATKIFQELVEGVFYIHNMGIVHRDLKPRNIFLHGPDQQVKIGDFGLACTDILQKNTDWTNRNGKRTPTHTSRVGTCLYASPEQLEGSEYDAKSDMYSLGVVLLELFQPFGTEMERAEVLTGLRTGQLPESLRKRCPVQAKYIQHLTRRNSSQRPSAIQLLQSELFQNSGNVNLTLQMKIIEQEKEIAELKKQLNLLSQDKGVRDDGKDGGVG
Sequence of NEK4 (human) (P51957 whole entry, looked up): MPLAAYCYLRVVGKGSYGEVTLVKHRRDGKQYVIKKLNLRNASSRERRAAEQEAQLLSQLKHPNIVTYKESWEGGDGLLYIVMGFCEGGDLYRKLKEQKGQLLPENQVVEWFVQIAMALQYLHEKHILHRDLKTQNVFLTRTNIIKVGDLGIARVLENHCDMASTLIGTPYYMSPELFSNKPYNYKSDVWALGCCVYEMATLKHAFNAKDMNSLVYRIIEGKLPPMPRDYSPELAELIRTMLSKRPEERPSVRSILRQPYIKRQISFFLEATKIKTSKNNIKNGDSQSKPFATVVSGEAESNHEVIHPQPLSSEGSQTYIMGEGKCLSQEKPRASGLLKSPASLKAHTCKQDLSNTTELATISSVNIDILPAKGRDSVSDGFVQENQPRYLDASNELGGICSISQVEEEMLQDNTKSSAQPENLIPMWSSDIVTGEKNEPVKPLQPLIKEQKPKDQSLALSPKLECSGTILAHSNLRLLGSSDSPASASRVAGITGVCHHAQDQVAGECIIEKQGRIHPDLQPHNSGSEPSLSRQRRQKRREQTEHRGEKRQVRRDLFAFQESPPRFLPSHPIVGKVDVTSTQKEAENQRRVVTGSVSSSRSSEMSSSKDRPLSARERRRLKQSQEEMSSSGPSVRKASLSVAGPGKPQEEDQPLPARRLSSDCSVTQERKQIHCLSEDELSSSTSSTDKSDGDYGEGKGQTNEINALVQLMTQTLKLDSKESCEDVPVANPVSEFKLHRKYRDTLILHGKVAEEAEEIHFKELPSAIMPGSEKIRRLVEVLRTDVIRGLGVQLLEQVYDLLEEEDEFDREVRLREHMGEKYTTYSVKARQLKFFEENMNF
Sequence of MAK (human) (P20794 whole entry, looked up): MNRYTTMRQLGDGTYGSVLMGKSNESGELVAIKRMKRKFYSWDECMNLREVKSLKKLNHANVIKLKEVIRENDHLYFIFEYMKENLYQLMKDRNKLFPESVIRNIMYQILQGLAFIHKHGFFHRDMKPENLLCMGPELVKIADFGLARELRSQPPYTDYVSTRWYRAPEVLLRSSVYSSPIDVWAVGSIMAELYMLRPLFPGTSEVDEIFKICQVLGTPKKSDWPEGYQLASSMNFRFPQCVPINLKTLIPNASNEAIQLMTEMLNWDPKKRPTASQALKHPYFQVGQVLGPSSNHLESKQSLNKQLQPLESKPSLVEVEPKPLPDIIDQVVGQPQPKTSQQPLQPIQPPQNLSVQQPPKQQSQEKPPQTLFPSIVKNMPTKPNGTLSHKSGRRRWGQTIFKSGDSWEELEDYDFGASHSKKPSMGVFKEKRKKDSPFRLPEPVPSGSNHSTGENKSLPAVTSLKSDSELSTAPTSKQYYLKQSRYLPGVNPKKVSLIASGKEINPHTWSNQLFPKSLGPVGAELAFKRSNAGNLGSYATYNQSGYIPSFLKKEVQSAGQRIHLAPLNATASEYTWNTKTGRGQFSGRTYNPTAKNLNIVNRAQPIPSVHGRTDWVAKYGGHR
Sequence of CDKL1 (human) (Q00532 whole entry, looked up): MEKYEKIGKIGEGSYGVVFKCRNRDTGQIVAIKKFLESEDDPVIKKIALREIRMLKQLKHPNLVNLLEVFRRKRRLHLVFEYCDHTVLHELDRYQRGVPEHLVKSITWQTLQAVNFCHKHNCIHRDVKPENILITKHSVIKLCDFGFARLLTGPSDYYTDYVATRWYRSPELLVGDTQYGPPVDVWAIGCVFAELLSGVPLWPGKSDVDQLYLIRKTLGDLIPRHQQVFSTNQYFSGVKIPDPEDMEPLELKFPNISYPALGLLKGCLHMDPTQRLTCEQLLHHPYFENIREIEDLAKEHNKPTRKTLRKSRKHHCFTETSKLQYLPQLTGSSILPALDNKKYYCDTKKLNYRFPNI
Sequence of GRK1 (human) (Q15835 whole entry, looked up): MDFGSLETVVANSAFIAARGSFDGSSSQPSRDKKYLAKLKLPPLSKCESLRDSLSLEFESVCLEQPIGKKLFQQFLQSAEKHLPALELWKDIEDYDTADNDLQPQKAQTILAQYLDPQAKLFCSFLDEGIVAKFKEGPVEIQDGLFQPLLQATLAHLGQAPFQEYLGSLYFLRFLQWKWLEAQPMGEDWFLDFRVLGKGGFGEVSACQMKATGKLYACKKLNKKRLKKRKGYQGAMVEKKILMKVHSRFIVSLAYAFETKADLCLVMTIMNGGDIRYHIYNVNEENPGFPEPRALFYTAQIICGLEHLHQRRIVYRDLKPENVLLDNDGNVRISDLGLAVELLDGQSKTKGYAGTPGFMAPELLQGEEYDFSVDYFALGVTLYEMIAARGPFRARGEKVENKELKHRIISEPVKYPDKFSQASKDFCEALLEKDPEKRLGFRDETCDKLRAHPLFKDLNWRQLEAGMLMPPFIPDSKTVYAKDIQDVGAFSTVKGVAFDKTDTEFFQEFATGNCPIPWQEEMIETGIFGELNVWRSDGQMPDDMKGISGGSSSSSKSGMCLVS

kinase still bound, per cent of control [12] [%] | kinase still bound, per cent of control [13] [%] | kinase still bound, per cent of control [14] [%] | kinase still bound, per cent of control [15] [%] | SMILES | kinase still bound, per cent of control [1] [%] | kinase still bound, per cent of control [2] [%] | kinase still bound, per cent of control [3] [%] | kinase still bound, per cent of control [4] [%] | kinase still bound, per cent of control [5] [%] | kinase still bound, per cent of control [6] [%] | kinase still bound, per cent of control [7] [%] | kinase still bound, per cent of control [8] [%] | kinase still bound, per cent of control [9] [%] | kinase still bound, per cent of control [10] [%] | kinase still bound, per cent of control [11] [%]
– | – | – | – | CCN1CCN(Cc2ccc(NC(=O)c3ccc(C)c(/C=C/c4cnc(Nc5cc(N6CCNCC6)nc(C)n5)cn4)c3)cc2C(F)(F)F)CC1 | 28 | 49 | 80 | 61 | 33 | 100 | 94 | 100 | 92 | 100 | 93
40 | 2.2 | 40 | – | COc1cc(N2CCC(N3CCN(C)CC3)CC2)ccc1Nc1ncc(Cl)c(Nc2ccccc2S(=O)(=O)C(C)C)n1 | – | – | – | – | – | – | – | – | – | – | –
– | – | – | – | CCOc1cc(N2CCC(N3CCCCC3)CC2)ccc1Nc1nc(Nc2ccccc2S(=O)(=O)C(C)C)c2cn[nH]c2n1 | 74 | 100 | 92 | 100 | 100 | 100 | 100 | 98 | 100 | 32 | 99
– | 0.4 | – | 0.7 | CCN1CCN(Cc2ccc(NC(=O)c3ccc(C)c(Oc4ccnc5[nH]ccc45)c3)cc2C(F)(F)F)CC1 | – | – | – | – | – | – | – | – | – | – | –

Reference: the kinase profiling compilation of Christmann-Franck et al. (2016)
